Data on 60 compounds can be found in the METLIN SMRT retention time set (Domingo-Almenara et al. 2019).

This data set is described as follows: gradient 5% acetonitrile 3 min, to 50% in 2 min, to 85% in 15 min, held 3 min, 100 µL/min. To be noted: column: Zorbax Extend-C18 2.1 x 50 mm; eluents: water / acetonitrile, 0.1% formic acid. In short, it runs like this:
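The mobile phases were water and acetonitrile, each with 0.1% formic acid, pumped at 100 μL/min through a Zorbax Extend-C18 column (2.1 × 50 mm, 1.8 μm). Pure standards were injected as mixtures of ~100 molecules and detected by a quadrupole time-of-flight mass spectrometer in positive and negative ionization mode. Retention time came from computationally picked adduct peaks, each inspected by hand.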
Regarding `COc1ccc(-c2ncc3c(n2)CCN(C(=O)c2ccccc2Br)C3)cc1`, the RP-LC retention time was 948 s.

With `CCc1cc(=O)n(CC(=O)Nc2ccccc2F)c(N2CCOCC2)n1`, the RP-LC retention time was determined as 711 s. For the compound `CCc1ccccc1N1C(=O)CC(N2CCC(C(N)=O)CC2)C1=O` (stereo not given), the RP-LC retention time was found to be 591 s. `COc1ccc(C2(C(=O)N3CCC(c4nc(CCOCC5CCCC5)no4)C3)CC2)cc1` (stereo not given) returned an RP-LC retention time of 1060 s. For the compound `O=C(Cn1c(=O)c(CCC(=O)NC2CCCC2)nc2ccccc21)NCc1ccccc1Cl`, the RP-LC retention time was 842 s.

Compound `COC(=O)c1c(NCCO)c2cccc(Cl)c2[nH]c1=O` came in with an RP-LC retention time of 610 s. To `COC(=O)c1ccc2c(=O)n(Cc3ccc(F)cc3)c(N3CCCCC3)nc2c1` belongs 1210 s.

For `Cc1ccc(S(=O)(=O)N2CCCC2)cc1-c1nnc(-c2ccc(F)cc2)o1`, the RP-LC retention time turned out to be 1040 s. For `Cc1ccc(S(=O)(=O)c2nc(S(C)(=O)=O)sc2NCc2ccccn2)cc1` the value was 763 s. In turn, `COc1ccc2c(c1)C1(CCN(C(=O)c3cccs3)C1)C(=O)N2C` (stereo not given) came in with an RP-LC retention time of 738 s. For `O=C(CN1C(=O)C(C(=O)N2CCCC2)Sc2ccccc21)Nc1cccc(Cl)c1` (stereo not given) the value was 1080 s; for `Cc1nc(NC(=O)N2CCC[C@H]2C(N)=O)sc1-c1ccnc(C(C)(C)C(F)(F)F)c1`, 746 s.

In turn, `O=C(NC1CCCCC1)N1CCC(c2noc(-c3ccccc3)n2)C1` (stereo not given) yielded an RP-LC retention time of 939 s. On to `COc1ccc(CN2CC3(CCN(S(=O)(=O)Cc4ccccc4)CC3)C2=O)cc1`, for which the RP-LC retention time was 882 s. For `COCCn1c(SCc2c(F)cccc2Cl)nnc1-c1cn(C)nc1OC`, the RP-LC retention time is 683 s. To `COc1cccc2cc(C(=O)N3CC(c4nc(-c5cccs5)no4)C3)oc12` belongs 856 s.

In turn, `CCc1ccc(NC(=O)c2cccn2Cc2noc(C)n2)cc1` had an RP-LC retention time of 910 s. As for `CCOc1ccccc1C1CC(=O)NC(SCC(=O)Nc2nccs2)=C1C#N` (stereo not given), the RP-LC retention time was determined as 734 s.

Take `CN(CC1CCOCC1)C(=O)Nc1cc(F)cc(F)c1`: the RP-LC retention time worked out at 754 s.

As for `Cn1cc(-c2cc3n(n2)CCC(=O)N3CCCC(=O)N2CCOCC2)c2ccccc21`, the RP-LC retention time turned out to be 692 s. In turn, `COc1cccc(CNC(=O)COc2cc(C)nc(N3CCN(c4ccccc4)CC3)n2)c1OC` had an RP-LC retention time of 783 s.

Consider `CN(C)C(=O)c1ccc2c(c1)nc(CN(C)C(=O)Nc1ccc(F)cc1)n2C`, for which the RP-LC retention time stood at 598 s.

As for `O=C(NCc1ccc(Cl)cc1)NCC(O)Cc1ccccc1` (stereo not given), the RP-LC retention time was found to be 721 s. With `O=C(NCc1ccc2c(c1)OCO2)C1CCCN(c2nccn3nc(-c4ccc(F)cc4)cc23)C1` (stereo not given), the RP-LC retention time was determined as 872 s. With `COc1ccc(-c2cn3c(CC(=O)NCc4cc(OC)c(OC)c(OC)c4)csc3n2)cc1OC`, the RP-LC retention time amounted to 652 s. For `COC(=O)C1=CN(c2cccc(F)c2)c2ccc(F)cc2S1(=O)=O` the value was 838 s; for `CCn1c(C(=O)NCc2ccccc2Cl)cc2sc(Cl)cc21`, 1190 s. For `c1cc(CN2CCCCC2)cc(OCCCNc2nc3ccccc3s2)c1` the value was 665 s; for `CN1CCCn2cc(S(=O)(=O)NCCc3ccc(Cl)cc3)cc2C1=O`, 752 s. As to `O=c1n(Cc2ccc(F)cc2Cl)nc2n1CCCCC2`, the RP-LC retention time came to 751 s. To `Clc1ccc(Nc2c(-c3ccc(Cl)cc3)nc3cnccn23)cc1` belongs 1040 s. For `CC(C)CCn1nc2c(S(=O)(=O)N3CCc4ccccc4C3)cccn2c1=O` the value was 1010 s. To `Cc1ccc(Cn2c(N3CCCC(C(=O)NC4CCCC4)C3)nc3ccsc3c2=O)cc1` (stereo not given) belongs 967 s; to `Cc1ccc2oc(-c3nnc(C(=O)NCCN4CCC(C)CC4)o3)c(C)c2c1`, 674 s.

On to `Cc1nc(Oc2ccccc2)cc(N2CCN(C(=O)c3c(F)cccc3F)CC2)n1`, for which the RP-LC retention time is 785 s. Compound `COc1ccc(NC(=O)CN2C(=O)CC(C)Sc3ccccc32)c(OC)c1` (stereo not given) returned an RP-LC retention time of 853 s. To `Cc1cc(Cl)cc2sc(NCC3CCCO3)nc12` (stereo not given) belongs 958 s; to `O=C(c1ccco1)N1CCCC(c2cc(-c3ccc(F)cc3)n[nH]2)C1` (stereo not given), 674 s; to `CC1=C(c2ccc(C)cc2)S(=O)(=O)N=C1N1CCCC1`, 816 s.

On to `COc1ccc(NC(=O)N2[C@H]3CC[C@@H]2c2cnc(C)nc2C3)cc1OC`, for which the RP-LC retention time was determined as 611 s. To `O=C(NCc1cccc(F)c1)c1ccc2c(c1)ncn2CCN1CCCC1` belongs 582 s; to `CCc1ccc(Oc2cc(N3CCC(C(=O)N4CCN(c5ccccn5)CC4)CC3)ncn2)cc1`, 689 s; to `COc1ccc(OC)c(NC(=O)Nc2c(-c3ccc(F)cc3)nc3ccccn23)c1`, 625 s.

`O=C(CCC1CCCN(S(=O)(=O)c2cccc(F)c2)C1)NC1CCCCC1` (stereo not given) yielded an RP-LC retention time of 936 s.

Compound `Cc1ccc(C2c3cc(OCC(=O)N4CCCC4)ccc3CCN2C(=O)C2CC2)cc1` (stereo not given) returned an RP-LC retention time of 824 s. For `Nc1nc(-c2ccc(O)cc2)cs1` the value was 547 s; for `Cc1cccc(NC(=O)Cn2c(=O)c3cc(C4CC4)nn3c3ncccc32)c1`, 789 s; for `Cc1ccc(C(=O)N2CCCC(COc3ccc(C(=O)NC4CC4)cc3)C2)c(C)c1` (stereo not given), 856 s. To `Cc1ccccc1N1OC2C(=O)N(c3ccc(F)cc3)C(=O)C2C1c1ccncc1` (stereo not given) belongs 671 s; to `CCN(CC)C(=O)CSc1nnc(-c2ccc3c(c2)OCCCO3)n1C`, 691 s; to `COC(=O)C1=C(C)NC2=C(C(=O)c3ccccc32)C1c1cccc(OC)c1` (stereo not given), 917 s.

In turn, `CCOc1ccccc1C(=O)Nc1cccn2c(C3CCC3)nnc12` showed an RP-LC retention time of 953 s. `O=C(COc1ccccc1)N1CCN(c2nc(CN3CCOCC3)cs2)CC1` displayed an RP-LC retention time of 615 s. As to `CCc1ccc(NS(=O)(=O)c2cc3n(c2)CCCNC3=O)cc1`, the RP-LC retention time was 691 s. `COc1ccccc1Cc1noc(C2CN(C(=O)c3ccc4nsnc4c3)C2)n1`: the RP-LC retention time amounted to 814 s. Take `Cc1csc(-c2cc(S(=O)(=O)Nc3ccc(F)c(Cl)c3)c(C)s2)n1`: the RP-LC retention time came to 1070 s.

Take `Cc1cc(N2CCN(C(=O)c3nccc4ccccc34)CC2)nc2nnc(C)n12`: the RP-LC retention time came out at 592 s. For `CNC(=O)c1c(NC(=O)c2ccc(Cl)cc2)sc2c1CCC2` the value was 1180 s; for `Cc1ccc(OCC(=O)Nc2nnc(C3CC(=O)N(c4ccc(Cl)cc4)C3)o2)cc1` (stereo not given), 788 s. To `COc1ccccc1C(=O)Nc1c(-c2ccccc2)nc2ccccn12` belongs 597 s.
